Literature values as cited in patent publication US6884908B2, “Process for isolation of hepatoprotective agent “oleanolic acid” from Lantana camera” (Council of Scientific & Industrial Research, priority 2003, dated 2005).

Tests used:
[1] = tested on: azoxymethane-induced intestinal tumor; settings: rats, 200 ppm in diet for 3 weeks
[2] = tested on: experimental hyperlipidemic rats; settings: 50 mg/kg, P.O. for 9 days
[3] = tested on: CCl4-induced liver parenchymal cell necrosis, steatosis and degeneration; settings: in vivo
[4] = tested on: adjuvant induced arthritis; settings: rats and mice
[5] = tested on: paw edema produced by dextran; settings: rats and mice

## CC1(C)CC[C@]2(C(=O)O)CC[C@]3(C)C(=CC[C@@H]4[C@@]5(C)CC[C@H](O)C(C)(C)[C@@H]5CC[C@]43C)[C@@H]2C1 [oleanolic acid, (3-O-β-hydroxy-olea-12-en-28-oic acid]
[1]
  incidence and multiplicity of azoxymethane-induced intestinal tumor: decreases the incidence and multiplicity
[2]
  decrease of elevated blood cholesterol level: more than 40%
  decrease of elevated β-lipoprotein level: more than 40%
[3]
  CCl4-induced liver parenchymal cell necrosis, steatosis and degeneration: decreases
[4]
  adjuvant induced arthritis: suppressing
[5]
  paw edema produced by dextran: inhibiting
